This is an account of results in patent publication US20260217768A1, “NANOPARTICLE-NHE3 PEPTIDE TO TREAT DIARRHEA” (The Johns Hopkins University, priority 2023, published 2026).

One assay concerns NHE3. In words: Effect of N-terminal truncations of N3SP-1 on NHE3 activity in human enteroids (BCECF-fluorometry). It is filed as cell-based. Conditions: human duodenal enteroids, Hill equation. As to the method:
NHE3 activity in PS120, Caco-2/BBe cells and human jejunal enteroids was determined fluorometrically (Photon Technologies Incorporated) using the intracellular pH sensitive dye BCECF, as reported (Levine et al., 1993; Sarker et al., 2008; Foulke-Abel et al., 2020). PS120/HA3-NHE3 cells were seeded on glass cover slips and studied at 70-80% confluency. Caco-2/BBe/HA3-NHE3 cells were grown to confluency on Transwell inserts (polyester, 0.4-μm pore size) and studied approximately 14-16 days pod. Human duodenal enteroid monolayers on Transwell inserts were differentiated for 5 days in the absence of Wnt3a, R-spondin, and noggin as described (Noel et al., 2017; Staab et al., 2020).
Rates of Na^+/H^+ exchange were determined as Na^+-dependent alkalinization in the presence of 50-μM HOE-694 (to inhibit all other plasma membrane NHE isoforms) in HCO3-free solutions, with internal calibration using the nigericin/K+ method, as previously described (Sarker et al., 2008; Foulke-Abel et al., 2020). Kinetic analysis was used for PS120 cell studies (expressed as Vmax) and initial rates (ΔpH/min) for Caco-2/BBe cells, mouse intestine in vitro, and human enteroids. For in vitro mouse jejunal transport studies, NHE3 activity (in the presence of 50-μM HOE-694) was measured using SNARF-4F at 37° C. in a perfusion chamber using a two-photon microscope (Olympus FV1000) and 25× objective, as described (Murtazina et al., 2011).
Concentration dependent effects on NHE3 basal activity was determined using BCECF-fluorometry. Kinetic analysis was determined of extent of stimulation of basal NHE3 activity; analysis was by use of the Hill equation.
Given the ability of N3SP-1Δ7 to prevent CTx-induced fluid secretion in vivo (FIG. 3E) and to stimulate basal NHE3 activity and prevent cAMP inhibition in human enteroids (FIG. 4C), further studies were carried out with human enteroids to determine the shortest N3SP-1-related peptide that would stimulate human NHE3. A series of N3SP-1 N-terminal truncations was synthesized and concentration-dependent stimulation of NHE3 activity determined using human jejunal enteroids.

The test system of a further assay is adenylate cyclase-cAMP. Briefly: cAMP assay in human enteroid monolayers exposed to FSK. It is filed as cell-based. Particulars: nanoparticles with 250-nM peptide, FSK (10 μM) 45 min, CP-2 vs N3SP-1Δ7. How it is done: Human jejunal enteroid monolayers on Transwell inserts (Corning Cat #: 3470) were differentiated for 5 days and then in serum-free media were exposed apically to nanoparticles containing either 250-nM CP-2 or N3SP-1Δ7. The peptide and polymer in PBS were prepared just before use, allowed to combine for 10 min before being added to the apical surface of enteroid monolayers at room temperature. Monolayers were incubated for 4 hours at 37° C., 5% CO2 incubator before the nanoparticles were removed, then monolayers were washed 3 times with cold PBS and changed to differentiation media and moved to a 37° C. incubator. Differentiation media was removed 24 hours later and washed twice with CMGF-media (Advanced DMEM/F12 with 10-mM Hepes, 10-mM GlutaMax, and 1000 Units/mL Penn/Strep). Next, 100 μL of CMGF-media containing 10-mM Theophylline, 50-μM Cilostazol and 50-μM Rolipram was added to the apical and basolateral surfaces followed by exposure to FSK (10 μM) at 37° C., 5% CO2, for 45 min before apical and basolateral media were collected and cells were lysed in 200-μL 0.1 M HCl for cAMP analysis. CAMP in apical, basolateral, and cells was determined using nonradioactive, CAMP-ELISA kits from ENZO Life Sciences (Loerrach, German), using the acetylation protocol in which the yellow-colored product is inversely proportional to the amount of CAMP present in the sample.
For orientation: cAMP levels reflect the balance of adenylyl cyclase and phosphodiesterase activity.

For a further assay, the system named is mouse ileal loops. Briefly: Basal fluid absorption in closed mouse ileal loops, nanoparticle-conjugated peptides, with or without Tenapanor. It is filed as in vivo. Particulars: for residual fluid / fluid absorption in closed ileal loops compared to CP2: nanoparticle conjugated peptide 400 nM for 4 h, then 150-μL PBS for 30 min. How it is done: All in vivo studies were performed on 8-12 week old C57B1/6N mice anesthetized with isofluorane and kept at 37° C. via heating lamps and rectal thermal probes.
Effect on basal fluid transport and effect of Tenapanor. Mice operated on as above had 3-4 cm closed ileal loops inoculated with 150-μL PBS containing 400-nM nanoparticle-CP-2 or -N3SP-1Δ7. After 4 h, the loops were drained and inoculated with 150-μL PBS. 30 min later, the animals were sacrificed and loop weight/length determined. In parallel studies, Tenapanor (10 μM) was present in both incubation periods. Similar to the BODIPY-conjugated peptide studies, the effects of nanoparticle-CP-2 or N3SP-1Δ7 (4 μM) compared to PBS alone were determined on net fluid secretion produced by inoculation of 0.1-μg CTx. The nanoparticle-peptides plus 0.1-μg CTx in 150-μL PBS were inoculated in 3-4 cm long closed ileal loops. Additional controls included loops exposed only to 150-μL PBS and those only exposed to the CTx/PBS. 4 h later, the animals were sacrificed and loop weight/cm length was determined.

What is called EC50 is the concentration at which the effect is half-maximal. Turning to “N3SP-1 lacking first seven N-terminal amino acids: RPSTVEASVSYLLRESASAVCLDMQSLEQRR [Peptide N3SP-1Δ7]”, the “Stimulation of NHE3 Activity” value in the assay with NHE3 (basal NHE3 activity, BCECF-fluorometry) is “YES (39%)”. The substance also showed an EC50 in the assay with NHE3 (stimulation of basal NHE3 activity) of 156 nM. In addition, the “FSK-increased intracellular cAMP” value in the assay with adenylate cyclase-cAMP is “similar”. For the same substance, the “residual fluid / fluid absorption in closed ileal loops compared to CP2” value in the assay with mouse ileal loops is “increased fluid absorption”; in the assay with mouse ileal loops (listed as N3SP-147) it was “significantly less amount of residual fluid”. The “residual fluid in presence of Tenapanor, CP2 vs N3SP-1Δ7” value in the assay with mouse ileal loops (nanoparticle conjugated peptide 400 nM, Tenapanor (10 μM) in both incubation periods) was “no difference in residual fluid”.
